The subject of test [1] is COLO 205 colorectal tumor cells. Kind of test: Tumor cell viability inhibition assay (CellTiter-Glo 2.0, 72 hours). In kind it is cell-based. The conditions noted are these: COLO 205 cell viability. In outline:
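COLO 205 cells (1500/well, RPMI-1640 + 10% FBS) exposed for 72 h to an 11-point, 4-fold dilution series; cellular ATP read by CellTiter-Glo 2.0 luminescence. Data normalized to DMSO and maximum-inhibition controls; IC50 from 4-parameter curve fit.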
For orientation: Cellular ATP, detected with luciferase, serves as a proxy for viable cell number.

The next test has as its target T1, human eIF4E protein (Homo sapiens, UniProt P06730).
T1 construct: purchased Novus NBP-45314
Kind of test: Biochemical competitive binding assay (TR-FRET competition, EDA-m7GDP-ATTO-647N probe). The conditions noted are these: read-out: hEIF4E TR-FRET IC50. In outline:
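His-tagged human eIF4E (4 nM) was preincubated with Eu-anti-His antibody (2.5 nM) and added to compound (11-point, 4-fold dilutions) for 15 min. Then 5 nM EDA-m7GDP-ATTO-647N was added for 15 min, in HEPES pH 7.5, 100 mM KCl. The 665/620 TR-FRET ratio was normalized to controls, and IC50 was taken from 4-parameter fits.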

Bounds are passed on as bounds.

As a reminder, the IC50 is the concentration at which inhibition is half-maximal.

T1 sequence (P06730 whole entry): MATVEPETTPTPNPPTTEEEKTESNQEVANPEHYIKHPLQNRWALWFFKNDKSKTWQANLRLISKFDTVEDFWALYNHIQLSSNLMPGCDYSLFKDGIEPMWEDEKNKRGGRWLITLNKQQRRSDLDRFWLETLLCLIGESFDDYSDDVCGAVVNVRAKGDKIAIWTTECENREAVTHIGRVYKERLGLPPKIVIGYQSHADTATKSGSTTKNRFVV

As for `Cc1cc(-c2cc(Cl)ccc2OCCn2c(C)nc3c(c2=O)C[C@H](N2CCCC[C@H]2c2cccc(F)c2)CC3)c2scc(C(=O)O)c2n1` (single isomer, unassigned) [Compound 540], the IC50 in test [1] (Homo sapiens, COLO 205, 72 h) is less than 5 µM; on human eIF4E protein, less than 0.1 µM.
In the same order, the values of `CO[C@@H]1CCN([C@@H]2CCc3nc(C)n(CCOc4ccc(Cl)cc4-c4cc(C)nc5c(C(=O)O)csc45)c(=O)c3C2)C[C@@H]1F` (single isomer, unassigned) [Compound 366] are 5 to 20 µM and less than 0.1 µM.
Turning to `COC1(C(F)(F)F)CC2CCC(C1)N2[C@@H]1CCc2nc(C)n(CCOc3ccc(Cl)cc3-c3cc(C)nc4c(C(=O)O)csc34)c(=O)c2C1` (single isomer, unassigned) [Compound 504], the IC50 in test [1] (Homo sapiens, COLO 205, 72 h) was less than 5 µM; on human eIF4E protein it was less than 0.1 µM.
In the same order, the values of `Cc1cc(-c2cc(Cl)ccc2OCCn2c(C)nc3c(c2=O)C[C@H](N2CCCC[C@@H]2c2cccc(F)c2)CC32CC2)c2scc(C(=O)O)c2n1` (single isomer, unassigned) [Compound 634, 7-(5-chloro-2-(2-(6′-(2-(3-fluorophenyl)piperidin-1-yl)-2′-methyl-4′-oxo-6′,7′-dihydro-4′H-spiro[cyclopropane-1,8′-quinazolin]-3′(5′H)-yl)ethoxy)phenyl)-5-methylthieno[3,2-b]pyridine-3-carboxylic acid] are more than 20 µM and 0.1 to 0.5 µM.
With `Cc1cc(-c2cc(Cl)ccc2OCCn2c(C)nc3c(c2=O)C[C@@H](N2CCC(c4nccs4)CC2)CC3)c2scc(C(=O)O)c2n1` (single isomer, unassigned) [Compound 476], the IC50 in test [1] (Homo sapiens, COLO 205, 72 h) was less than 5 µM; at human eIF4E protein, less than 0.1 µM.
In the same order, the values of `Cc1cc(-c2cc(Cl)ccc2OCCn2c(C)nc3c(c2=O)C[C@H](N2CCC4(CC2)CC4(F)F)CC3)c2scc(C(=O)O)c2n1` (single isomer, unassigned) [Compound 390] are less than 5 µM and less than 0.1 µM.
For `Cc1cc(-c2cc(Cl)ccc2OCCn2c(C)nc3c(c2=O)C[C@H](N2CCC(COC(F)(F)F)CC2)CC3)c2scc(C(=O)O)c2n1` (single isomer, unassigned) [Compound 452] the same measures were less than 5 µM and less than 0.1 µM.
For `Cc1cc(-c2cc(Cl)ccc2OCCn2c(C)nc3c(c2=O)C[C@@H](N2C[C@@H]4CC[C@H]2CC4OC(F)(F)F)CC3)c2scc(C(=O)O)c2n1` (single isomer, unassigned) [Compound 498] the same measures were less than 5 µM and less than 0.1 µM.
For `[2H]C1(N2CCC(OC(F)(F)F)CC2)CCc2nc(C)n(CCOc3ccc(Cl)cc3-c3cc(C)nc4c(C(=O)O)csc34)c(=O)c2C1` (single isomer, unassigned) [Compound 370], the IC50 was less than 5 µM in test [1] and less than 0.1 µM at human eIF4E protein.
Turning to `COC1CCN(C2(C)CCc3nc(C)n(CCOc4ccc(Cl)cc4-c4cc(C)nc5c(C(=O)O)csc45)c(=O)c3C2)CC1` (stereo not shown) [Compound 114], the IC50 in test [1] (Homo sapiens, COLO 205, 72 h) is less than 5 µM; at human eIF4E protein, less than 0.1 µM.
For the compound `Cc1cc(-c2cc(Cl)ccc2OCCn2c(C)nc3c(c2=O)CC(N2CC4(CCCN(CC(F)(F)F)C4)C2)CC3)c2scc(C(=O)O)c2n1` (single isomer, unassigned) [Compound 507], the 50% inhibitory concentration (IC50) in test [1] (Homo sapiens, COLO 205, 72 h) was less than 5 µM; on human eIF4E protein, less than 0.1 µM.
In the same order, the values of `COC1CCN([C@H]2Cc3c(nc(C)n(CCOc4ccc(Cl)cc4-c4cc(C)nc5c(C(=O)O)csc45)c3=O)C3(CC3)C2)CC1` (single isomer, unassigned) [Compound 371] are less than 5 µM and less than 0.1 µM.
For `COC1CCN([C@@H]2Cc3c(nc(C)n(CCOc4ccc(Cl)cc4-c4cc(C)nc5c(C(=O)O)csc45)c3=O)C3(CC3)C2)CC1` (single isomer, unassigned) [Compound 372] the same measures were less than 5 µM and less than 0.1 µM.
Take `Cc1cc(-c2cc(Cl)ccc2OCCn2c(C)nc3c(c2=O)CC(N2CCC4(CC2)CC4(F)F)CC32CC2)c2scc(C(=O)NS(C)(=O)=O)c2n1` (single isomer, unassigned) [Compound 632]: the IC50 in test [1] (Homo sapiens, COLO 205, 72 h) is less than 5 µM; at human eIF4E protein, less than 0.1 µM.
Consider `Cc1cc(-c2cc(Cl)ccc2OCCn2c(C)nc3c(c2=O)C[C@H](N2C[C@@H]4CC(F)(F)C[C@@H]4C2)CC32CC2)c2scc(C(=O)O)c2n1` (single isomer, unassigned) [Compound 618], for which the IC50 in test [1] (Homo sapiens, COLO 205, 72 h) was less than 5 µM; at human eIF4E protein, less than 0.1 µM.
Turning to `COC1CCN(C2(C)CCc3nc(C)n(CCOc4ccc(Cl)cc4-c4cc(C)nc5c(C(=O)O)csc45)c(=O)c3C2)CC1(C)C` (single isomer, unassigned) [Compound 565], the half-maximal inhibitory concentration (IC50) in test [1] was less than 5 µM; on human eIF4E protein, less than 0.1 µM.
On to `Cc1cc(-c2cc(Cl)ccc2OCCn2c(C)nc3c(c2=O)C[C@@H](N2CCCC[C@H]2c2cccc(F)c2)CC3)c2scc(C(=O)O)c2n1` (single isomer, unassigned) [Compound 542], for which the IC50 in test [1] (Homo sapiens, COLO 205, 72 h) is less than 5 µM; on human eIF4E protein, less than 0.1 µM.
For `Cc1cc(-c2cc(Cl)ccc2OCCn2c(C)nc3c(c2=O)C[C@H](N2CCC(n4ccnn4)CC2)CC3)c2scc(C(=O)O)c2n1` (single isomer, unassigned) [Compound 422] the same measures were 5 to 20 µM and less than 0.1 µM.
`Cc1cc(-c2cc(Cl)ccc2OCCn2c(C)nc3c(c2=O)CC(N2CCC(C(F)F)CC2)CC3)c2scc(C(=O)O)c2n1` (stereo not shown) [Compound 124]: the IC50 in test [1] (Homo sapiens, COLO 205, 72 h) is less than 5 µM; at human eIF4E protein, less than 0.1 µM.
As for `Cc1cc(-c2cc(Cl)ccc2OCCn2c(C)nc3c(c2=O)C[C@H](N2CCC(n4cccn4)CC2)CC3)c2scc(C(=O)O)c2n1` (single isomer, unassigned) [Compound 473], the IC50 is less than 5 µM in test [1] (Homo sapiens, COLO 205, 72 h) and less than 0.1 µM on human eIF4E protein.
Consider `Cc1csc([C@@H]2CCCN([C@H]3CCc4nc(C)n(CCOc5ccc(Cl)cc5-c5cc(C)nc6c(C(=O)O)csc56)c(=O)c4C3)C2)n1` (single isomer, unassigned) [Compound 481], for which the IC50 in test [1] (Homo sapiens, COLO 205, 72 h) is less than 5 µM; on human eIF4E protein it was less than 0.1 µM.
In the same order, the values of `COC1CCN([C@H]2CCc3nc(C)n(CCOc4ccc(Cl)cc4-c4cc(C)nc5c(C(=O)O)csc45)c(=O)c3[C@H]2C)CC1` (stereo in doubt) [Compound 102, 7-(5-chloro-2-(2-(6-(4-methoxypiperidin-1-yl)-2,5-dimethyl-4-oxo-5,6,7,8-tetrahydroquinazolin-3(4H)-yl)ethoxy)phenyl)-5-methylthieno[3,2-b]pyridine-3-carboxylic acid] are 5 to 20 µM and less than 0.1 µM.
In the same order, the values of `Cc1cc(-c2cc(Cl)ccc2OCCn2c(C)nc3c(c2=O)C[C@@H](N2CCCC[C@H]2c2nccs2)CC3)c2scc(C(=O)O)c2n1` (single isomer, unassigned) [Compound 548] are more than 20 µM and 0.1 to 0.5 µM.
In the same order, the values of `Cc1cc(-c2cc(Cl)ccc2OCCn2c(C)nc3c(c2=O)C[C@H](N2CC[C@@H](OC(F)(F)F)C2)CC3)c2scc(C(=O)O)c2n1` (single isomer, unassigned) [Compound 387] are less than 5 µM and less than 0.1 µM.
With `Cc1cc(-c2cc(Cl)c(=O)[nH]c2OCCn2c(C)nc3c(c2=O)CC(N(C)C2CC2)CC3)c2scc(C(=O)O)c2n1` (single isomer, unassigned) [Compound 233], the IC50 is more than 20 µM in test [1] (Homo sapiens, COLO 205, 72 h) and 0.5 to 5 µM on human eIF4E protein.
For `CCS(=O)(=O)C1CCN(C2CCc3nc(C)n(CCOc4ccc(Cl)cc4-c4cc(C)nc5c(C(=O)O)csc45)c(=O)c3C2)CC1` (stereo not shown) [Compound 115], the IC50 in test [1] (Homo sapiens, COLO 205, 72 h) was 5 to 20 µM; at human eIF4E protein, less than 0.1 µM.
Regarding `[2H]C1(N2CCC(OC(F)(F)F)CC2)CCc2nc(C)n(CCOc3ccc(Cl)cc3-c3cc(C)nc4c(C(=O)O)csc34)c(=O)c2C1` (single isomer, unassigned) [Compound 362], the IC50 in test [1] (Homo sapiens, COLO 205, 72 h) is less than 5 µM; at human eIF4E protein it was less than 0.1 µM.
For `Cc1cc(-c2cc(Cl)ccc2OCCn2c(C)nc3c(c2=O)C[C@H](N2CCC(O)CC2)CC3)c2scc(C(=O)O)c2n1` (single isomer, unassigned) [Compound 434] the same measures were less than 5 µM and less than 0.1 µM.
`Cc1cc(-c2cc(Cl)ccc2OCCn2c(C)nc3c(c2=O)C[C@H](N2CC[C@H](OC(F)(F)F)C(C)(C)C2)CC3)c2scc(C(=O)O)c2n1` (single isomer, unassigned) [Compound 394]: the IC50 was less than 5 µM in test [1] (Homo sapiens, COLO 205, 72 h) and less than 0.1 µM on human eIF4E protein.
Take `Cc1cc(-c2cc(Cl)ccc2OCCn2c(C)nc3c(c2=O)C[C@H](N2CCC(C(F)(F)F)CC2)CC32CC2)c2scc(C(=O)O)c2n1` (single isomer, unassigned) [Compound 602]: the IC50 in test [1] (Homo sapiens, COLO 205, 72 h) is less than 5 µM; on human eIF4E protein it was less than 0.1 µM.
Consider `Cc1cc(-c2cc(Cl)ccc2OCCn2c(C)nc3c(c2=O)C[C@@H](N2CCCCC(F)(F)C2)CC3)c2scc(C(=O)O)c2n1` (single isomer, unassigned) [Compound 470], for which the IC50 in test [1] (Homo sapiens, COLO 205, 72 h) was less than 5 µM; at human eIF4E protein it was less than 0.1 µM.
In the case of `Cc1nc2c(c(=O)n1CC#Cc1ccc(Cl)cc1-c1ccnc3c(C(=O)O)csc13)C[C@@H](N1CCC[C@@]3(C1)CC3(F)F)CC2` (single isomer, unassigned) [Compound 538, 7-(5-chloro-2-(3-(6-(1,1-difluoro-5-azaspiro[2.5]octan-5-yl)-2-methyl-4-oxo-5,6,7,8-tetrahydroquinazolin-3(4H)-yl)prop-1-yn-1-yl)phenyl)thieno[3,2-b]pyridine-3-carboxylic acid], the IC50 is less than 5 µM in test [1] (Homo sapiens, COLO 205, 72 h) and less than 0.1 µM on human eIF4E protein.

These data come from patent US20240246918A1, “COMPOUNDS AND COMPOSITIONS AS EIF4E INHIBITORS AND THE USES THEREOF” (Ribometrix, Inc., priority 2022, published 2024).
